# Laboratory results as given in publication PMC10512030, “Prolidase-proline oxidase axis is engaged in apoptosis induction by birch buds flavonol santin in endometrial adenocarcinoma cell line” (Frontiers in Molecular Biosciences, 2023).
# Columns and labels:
# [1] = test system: proline oxidase; assay: Western immunoblot of proline oxidase in treated cells; assay type: cell-based, human; conditions: 48 h
# Protocol: Adherent and floating cells were harvested and sonicated. Obtained homogenates were supplemented with 1% protease and phosphatase inhibitor cocktail (#78440, Thermo Fisher Scientific). The Lowry assay was performed to quantify protein content in the homogenates. Proteins (20–40 μg) were resolved on 7.5%, 10%, or 12% SDS-PAGE gels using the Mini-Protean Tetra system (Bio-Rad). Proteins were transferred to nitrocellulose membranes (Bio-Rad) using the Mini Trans-Blot Cell wet blotting system (Bio-Rad). Membranes were blocked with 5% skim milk for 1 h at room temperature and probed overnight at 4°C with primary antibodies. […] Membranes were incubated with ECL-HRP substrate (GE Healthcare), and the signal was detected using the BioSpectrum Imaging System (Ultra-Violet Products, Ltd.). Intensity of the bands was quantified by densitometric analysis using VisionWorks LS software (Ultra-Violet Products, Ltd.).
# [2] = test system: intracellular ROS; assay: Analysis of intracellular ROS with DCFDA; assay type: cell-based, human; conditions: santin 1 h
# Protocol: The oxidation-sensitive dye, 2′, 7′-dichlorofluorescein diacetate (DCFDA, D6883, Sigma-Aldrich), was used to determine the formation of intracellular ROS. Assay is based on the diffusion of DCFDA into the cell, where it is deacetylated by cellular esterases to a non-fluorescent compound, which is later oxidised by ROS into highly fluorescent 2′, 7′-dichlorofluorescein. […] Cells were treated with santin at concentrations of 6.2, 12.5, and 25 μM for 1, 24, or 48 h. Culture medium was discarded and the cells were washed with PBS and incubated with 10 μM DCFDA at 37°C for 30 min. Cell images were taken with fluorescence microscope.
smiles,measurement,setting,value
"COc1ccc(-c2oc3cc(O)c(OC)c(O)c3c(=O)c2OC)cc1 [santin, 5,7-dihydroxy-3,6,4′-trimethoxyflavone]",proline oxidase expression (Western blot),"[1]; HeLa cells, santin 6.2 and 12.5 μM",increased proline oxidase expression
same,proline oxidase expression (Western blot),"[1]; Ishikawa cells, santin",downregulated
same,ROS generation (DCFDA fluorescence),[2]; HeLa cells,significant increase
same,ROS generation (DCFDA fluorescence),[2]; Ishikawa cells,massive ROS generation
